Among the data in a melting point compilation (Tetko et al.; mined from patent text by program, amines drawn as free bases though some values may be those of a salt) are melting point values, retold here.

The term melting point denotes the temperature, or range, at which the solid turns liquid.

`Clc1nc(OCc2ccccc2)c2[nH]cnc2n1` registered a melting point of 195 to 196 °C.

Molecule `CC(C)c1ccc(C(=O)CCc2ccccc2)c(C(C)C)c1OS(N)(=O)=O` showed a melting point of 121 to 124 °C.

The molecule `CC1(C)Oc2ccc(C#N)cc2[C@@H](NC(=NC#N)N2CCN(Cc3ccccc3)CC2)[C@@H]1O` (relative stereo) showed a melting point of 205 to 207 °C.

`CN1C[C@@H]2CN(c3ccc4nc(Br)cn4n3)C[C@@H]2C1`: the melting point was 144 to 146 °C.

Molecule `NCCSc1cc(N)c([N+](=O)[O-])cc1N` showed a melting point of 149 °C.

`COc1ccc(/C(=C\C=C\C(=O)Oc2ccc([N+](=O)[O-])cc2)c2cccnc2)cc1`: the melting point was 54 to 56 °C.

As to `COC(=O)NC(=O)Nc1nc2ccccc2s1`, the melting point was 338 to 340 °C.

For the molecule `CCCCCCCCCCCCCCCCCCN(C)c1ccc([N+](=O)[O-])cc1C(=O)O`, the melting point lay within 108 to 109 °C.

Consider `CS(=O)(=O)c1ccccc1C(N)=O`, for which the melting point turned out to be 149 °C.

For the molecule `CCCCc1c(Cl)nc(N)nc1-c1ccccc1`, the melting point was in the range of 183 to 185 °C.

In turn, `O=C(O)c1ccc(NC(=O)C(F)(F)F)nc1` gave a melting point above 255 °C.

Consider `COc1cc(I)c(C=O)cc1OC`, for which the melting point was 139 to 141 °C.

The molecule `COc1ncccc1OCC1(c2onc(-c3ccc(O)cc3)c2-c2ccccc2)CC1` registered a melting point of 189 to 190 °C.

As for `CCCC(=O)Oc1ccc(C2=NNC(=O)CC2C)cc1` (stereo unspecified), the melting point lay within 112 to 113 °C.

Consider `Cc1nc(N2CCN(CC(=O)NCc3ccc(F)cc3)C2=O)sc1C(=O)NCc1ccccc1`, for which the melting point was 232 to 234 °C.

`CCOC(=O)C1=C(C)NC(C)=C(C#N)C1c1cccc2c1SC(c1ccccc1)=CC2` (stereo unspecified) returned a melting point of 206 to 207 °C.

For the molecule `NS(=O)(=O)OCCCOc1ccccc1`, the melting point was in the range of 83 to 85 °C.

Take `Cc1c(C)c2c(c(C)c1O)CC[C@](C)(C(=O)N[C@H]1CCOC1O)O2` (stereo partly specified): the melting point fell in the range of 67 to 70 °C.

As to `COc1ccccc1N1CCN(CCOc2ccc(-c3cn4cccnc4n3)cc2)CC1`, the melting point lay in the range of 150 to 152 °C.

`CN(C)C(=O)Cc1ccc2c(c1)sc1nc(=O)cc(-c3ccccc3)n12` yielded a melting point of 238 to 240 °C.

The molecule `CC12CC(=O)C3C(CCC4CC(O)CCC43C)C1CCC2C(=O)CSc1ccccn1` (stereo unspecified) returned a melting point of 184 °C.

Consider `C=CCOC(=O)Nc1ccc(C2=NNC(=O)CC2C)cc1` (stereo unspecified), for which the melting point was in the range of 206 to 207 °C.

Consider `O=C1Nc2cc(Cl)ccc2C(=O)C1c1ccncc1` (stereo unspecified), for which the melting point is above 330 °C.

For `COc1cc(Nc2nc3cccc(-c4ccc(C)c(N)c4)c3o2)cc(OC)c1OC`, the melting point fell in the range of 188 to 190 °C.

In turn, `O=C1NC(=O)C(=Cc2ccc(SCCc3ccc(Cl)cc3)cc2)S1` had a melting point of 215 to 225 °C.

On to `OCCc1ccc(N2CCOCC2)cc1`, for which the melting point is 57 °C.

Regarding `Cc1sc(-c2ccc(C(F)(F)F)cc2)nc1CCOc1ccc(CCC(=O)O)cc1`, the melting point was in the range of 142 to 147 °C.

For `Cn1ncnc1COc1nn2c(-c3ccccc3)nnc2cc1C1CCC1`, the melting point came to 228 °C.

As for `NC(=O)C1(c2ccccc2)CCN(CCC2(c3ccc(Cl)c(Cl)c3)CCN(C(=O)c3ccccc3)C2)CC1` (stereo unspecified), the melting point lay within 87 to 90 °C.

Consider `CN1Cc2c(C(=O)N3CCN(C(=O)c4ncn5c4CN(C)C(=O)c4cc(Cl)ccc4-5)CC3)ncn2-c2ccc(Cl)cc2C1=O`, for which the melting point is 367 to 374 °C.

In turn, `O=Cc1ccc(N2CCN(c3ccncc3)CC2)cc1` displayed a melting point of 116 to 118 °C.

In turn, `CC(C)COc1ccc(N)cc1C#N` displayed a melting point of 88 to 93 °C.

In turn, `C#CCCOC(c1ccccc1)(c1ccccc1)c1ccccc1` returned a melting point of 97 to 99 °C.

As for `CCCCn1ccc(Cc2cnc(NCCCCc3ncc(Br)cc3N)[nH]c2=O)cc1=O`, the melting point was in the range of 140 to 150 °C.

`COc1ccc(-c2c(Cl)c(CN3C(=O)CCC3=O)nc3sc4c(c23)CC(C)(C)C(=O)C4)cc1` gave a melting point of 222 to 224 °C.

Turning to `N#CCc1cc(Br)c(C(=O)c2ccc(Cl)cc2)[nH]1`, the melting point is 185 to 186 °C.

As for `Cc1nc(N2CCN(Cc3ccccc3)S2(=O)=O)sc1C(=O)NCc1ccccc1`, the melting point was 135 to 137 °C.

With `CN1CCN(c2ccccc2-c2ccc(C#N)c(=O)[nH]2)CC1`, the melting point fell in the range of 202 to 203 °C.

Molecule `CNC(=S)NCCSCc1nc2ccccc2[nH]1` showed a melting point of 157 to 159 °C.

Take `CC(C)(C)OC(=O)CN1C(=O)[C@@H](N[C@@H](CCCCNC(=O)OC(C)(C)C)C(=O)O)CSc2ccccc21`: the melting point fell in the range of 134 to 135 °C.

Take `COC(=O)C1CCC2C3CCC4CC(O)C(O)CC4(C)C3C(NC(=O)OCC(Cl)(Cl)Cl)CC12C` (stereo unspecified): the melting point lay in the range of 228 to 230 °C.

In turn, `CN(Cc1ccc(NC(=O)C2=Cc3cc(-c4ccc(C(C)(C)C)cc4)ccc3OCC2)cc1)C1CCOCC1` gave a melting point of 193 to 194 °C.

Molecule `CS(=O)(=O)c1nnc(-c2ccc(Cl)cc2)o1` gave a melting point of 159 to 160 °C.

Take `CC(C)(S)CNc1ccccc1N`: the melting point fell in the range of 38 to 40 °C.

In turn, `CCCOc1c(OC)cc(Cl)c2c1CN1CCc3cc(OC)c(OCc4ccccc4)cc3C1C2` (stereo unspecified) came in with a melting point of 118 to 120 °C.

For `CC(C)C[C@H](NC(=O)[C@@H]1CCC(=O)O1)C(=O)OC(C)(C)C`, the melting point was 79 to 81 °C.

Consider `O=C1NC(=O)C(=Cc2csc(NC(c3ccccc3)(c3ccccc3)c3ccccc3)n2)S1`, for which the melting point was 225 to 228 °C.

For `Cc1cc(Br)c(C)cc1Cl`, the melting point fell in the range of 60 to 64 °C.

For the molecule `COCCCc1cc(N(C)Cc2ccc(-c3ccc(C(F)(F)F)cc3)nc2C)ccc1OCC(=O)O`, the melting point fell in the range of 72 to 73 °C.

The molecule `CC1(C)CC(OC(=O)CCCCCNC(=O)OC2CC(C)(C)NC(C)(C)C2)CC(C)(C)N1` yielded a melting point of 59 to 62 °C.

`N#Cc1ccc(-c2ccc(-c3cn4cc(C#N)ccc4n3)cc2)cc1` came in with a melting point of 276 to 278 °C.

Turning to `NC(=S)/C=C1\CCc2ccc(F)cc21`, the melting point lay in the range of 178 to 179 °C.

Molecule `O=S1(=O)NC(Cc2ccccc2)Nc2ccc(S(=O)(=O)N3CCCCC3)cc21` (stereo unspecified) registered a melting point of 242 to 244 °C.

In turn, `CCNC(=O)CCC1CCN(Cc2cnc3cc(NC(=O)c4ccc(-c5ccc(F)cc5)cc4)c(C)cc3c2)CC1` showed a melting point of 227 to 230 °C.

Take `N#Cc1ccc2[nH]c3c(ccc4cc[nH]c43)c2c1`: the melting point is above 250 °C.

In turn, `Cc1ccccc1-c1c(C(=O)NCc2cc(C(F)(F)F)cc(C(F)(F)F)c2)n(C)c(=O)c2ccccc12` came in with a melting point of 168 to 170 °C.

`CCc1cccc2c3c([nH]c12)C(CC)(CC(=O)OC)OCC3NC(N)=O` (stereo unspecified) returned a melting point of 180 °C.

`Nc1ccc(N2C(=O)c3ccc(Cl)cc3C2=O)c(CO)c1` came in with a melting point of 228 to 230 °C.

In turn, `CN(Cc1cccc(-c2ccc(CC3SC(=O)NC3=O)cc2)c1)C(=O)c1cccnc1` (stereo unspecified) gave a melting point of 115 °C.

Molecule `O=C(O)c1ccccc1-c1n[nH]c(-c2cccc(C(F)(F)F)c2)n1` showed a melting point of 200 °C.

For the molecule `Oc1ccc2c(c1)COc1c-2cc2ccc(O)cc2c1-c1cc(F)cc(F)c1`, the melting point lay in the range of 238 to 240 °C.

The molecule `Cc1c(NC(=O)CC(C)(C)C)cc2c(c1C)OC(C)(C)C2(O)c1cccc(C(C)O)c1` (stereo unspecified) had a melting point of 206 to 207 °C.

The molecule `CSc1ccc([N+](=O)[O-])c2nonc12` came in with a melting point of 118 to 120 °C.

Consider `CCCCC(=O)NC1(c2ccc(C(C)C)cc2OC(=O)CCCC)C(=O)c2ccccc2C1=O`, for which the melting point is 117 to 118 °C.

Turning to `COc1cc(COc2nn(-c3ccccc3)cc2CCO)ccc1OCc1nc(-c2ccco2)oc1C`, the melting point was in the range of 123 to 124 °C.

`CN(C)c1nc2sc3c(NCCCN4CCCC4=O)ncnc3c2c2c1CC(C)(C)C2` registered a melting point of 184 to 186 °C.

As for `COc1ccc(-c2ccc3c(c2)c2ccc(Cl)nc2n3S(=O)(=O)c2ccccc2)cc1`, the melting point lay in the range of 176 to 178 °C.

As to `COCC1(C)Oc2ccc(C#N)cc2C2OC21` (stereo unspecified), the melting point is 88 to 90 °C.

`COc1cccc2c1CC[C@@H](O)[C@@H]2N1CCCC1` (relative stereo) had a melting point of 113 to 115 °C.

Consider `CC(C)C(C)(C)[Si](C)(C)OC1CCC2(C)C(=CC=C3C4CCC(=O)C4(C)CCC32)C1` (stereo unspecified), for which the melting point lay within 119 to 125 °C.

The molecule `CCCCCCNC(=O)OCCCCCCNC(=O)OC1CCN(C(=O)Oc2ccc(C3CCCCC3)cc2)CC1` had a melting point of 94 to 96 °C.

Consider `CC(=O)O[C@@H](C)C(=O)Nc1c(C(=O)c2cc(C)ccn2)[nH]c2cc(Cl)ccc12`, for which the melting point is 213 to 214 °C.

In turn, `COc1ccc(C(=O)Oc2ccc(C(=O)O)cc2CO)cc1C12CC3CC(CC(C3)C1)C2` displayed a melting point of 214 to 216 °C.

`CNC(=O)[C@@H]1C[C@@H](OC(C)(C)C)CN1S(=O)(=O)c1ccc(Cl)c(COc2cccc3c(-n4ccnc4)cc(C)nc23)c1Cl` showed a melting point of 84 °C.

`COC(=Cc1ccc(-c2cccc(N(C)C(=O)NCCc3ccccc3)c2)cc1)C(=O)O` showed a melting point of 144 °C.

Regarding `CC(C)(C)C#Cc1cc([N+](=O)[O-])ccc1C(=O)O`, the melting point fell in the range of 170 to 173 °C.

Consider `COC(=O)[C@H]1CC[C@@H](c2ccc(F)cc2)N1S(=O)(=O)c1ccc(C)cc1` (racemic), for which the melting point was 91 °C.

With `COCCOc1ccc2c(c1)n(C1CCCCC1)c(=O)n2S(=O)(=O)c1ccc(C(=O)O)cc1OC`, the melting point came out at 105 °C.

In turn, `COc1nc(N)c2ncn(C3OC(CO)C(O)C3O)c2n1` (stereo unspecified) came in with a melting point of 191 to 192 °C.

`CCCCCCCCC1(CCCCCCCC)c2cc(N)ccc2-c2ccc(N)cc21`: the melting point lay in the range of 58 to 63 °C.

Regarding `CCn1ncc2c3onc(-c4ccccc4)c3cnc21`, the melting point is 151 to 153 °C.

`CCn1ncc2c3[nH]c4ccnn4c(=O)c3cnc21` returned a melting point above 300 °C.

`COC(=O)c1ccc(O)cc1NC(=O)c1cccc2ccccc12`: the melting point lay within 246 to 248 °C.

Turning to `CN1CCN(C2=Cc3ccccc3Oc3ccccc3C2)CC1`, the melting point amounted to 127 °C.

The molecule `COC(=O)C(C)Nc1ccc(F)c(F)c1F` (stereo unspecified) gave a melting point of 41 to 43 °C.

On to `CC1(C)CC(=O)N(C(=O)OCc2ccccc2)CC(C)(C)N1`, for which the melting point lay in the range of 86 to 88 °C.
